Measured values taken from US20250073351A1, “IMPROVED COMPOSITIONS FOR DELIVERY OF MRNA” (TRANSLATE BIO, INC., priority 2021, published 2025).

System: lungs of mice
Test: In vivo screen of cationic lipids for pulmonary delivery of FFL mRNA-LNP (IVIS imaging)
Details: LNP with DOPE, DMG-PEG2K, optionally cholesterol; about 5 hours post-dose
Procedure: In this example, various cationic lipids were tested for in Wvo efficacy when mRNA encapsulated in lipid nanoparticles (mRNA-LNP) were administered to mice by pulmonary delivery. The cationic lipids were tested for both potency, as determined by levels of protein production, and tolerability, as determined by side effects associated with clearance and metabolism.
About 150 cationic lipids were tested. (FIG. 16). Each cationic lipid was used in preparing lipid nanoparticles encapsulating mRNA encoding firefly luciferase protein (FFL mRNA) according to methods known in the art. For example, suitable methods for mRNA encapsulation include methods described in International Publication Nos. WO2016/004318 and WO 2018/089801, which are hereby incorporated by reference in their entirety. The tested lipid nanoparticles comprised a lipid component consisting of a cationic lipid, a non-cationic lipid (DOPE), a PEG-modified lipid (DMG-PEG2K), and optionally cholesterol.
Lipid nanoparticle formulations comprising FFL mRNA were administered to mice. At approximately 5 hours post-dose, the animals were dosed with luciferin by intraperitoneal injection and all animals were imaged using an IVIS imaging system to measure luciferase production in the lung. […] Some cationic lipids remarkably had greater than 50-fold increase in pulmonary protein expression as compared to other cationic lipids.

CCCCC/C=C\C/C=C\CCCCCCCC(=O)OCC(COC(=O)CCCCCCC/C=C\C/C=C\CCCCC)(COC(=O)CCCCCCC/C=C\C/C=C\CCCCC)NCCS(=O)(=O)NCCN(C)C [GL-TES-SA-DME-E18-2, 2-((2-(N-(2-(dimethylamino)ethyl)sulfamoyl)ethyl)amino)-2-((((9Z,12Z)-octadeca-9,12-dienoyl)oxy)methyl)propane-1,3-diyl (9Z,9′Z,12Z,12′Z)-bis(octadeca-9,12-dienoate)]
potency as determined by the average radiance detected in mouse lungs: particularly high potency

CCCCC/C=C\C/C=C\CCCCCCCC(=O)OCC(COC(=O)CCCCCCC/C=C\C/C=C\CCCCC)(COC(=O)CCCCCCC/C=C\C/C=C\CCCCC)NCCS(=O)(=O)NCCCN(C)C [GL-TES-SA-DMP-E18-2]
potency as determined by the average radiance detected in mouse lungs: particularly high potency

CCCCCCCCC(O)CN(CCCC(=O)OCCN1CC(C)N(CCOC(=O)CCCN(CC(O)CCCCCCCC)CC(O)CCCCCCCC)CC1C)CC(O)CCCCCCCC (stereo not drawn) [HEP-E3-E10]
potency as determined by the average radiance detected in mouse lungs: particularly high potency

CCCCCCCCC(O)CN(CCCCC(=O)OCCN1CC(C)N(CCOC(=O)CCCCN(CC(O)CCCCCCCC)CC(O)CCCCCCCC)CC1C)CC(O)CCCCCCCC (stereo not drawn) [HEP-E4-E10]
potency as determined by the average radiance detected in mouse lungs: particularly high potency

CCCCCCCCOC(=O)CC(CC(=O)OCCCCCCCC)(OC(=O)CCN(C)C)C(=O)OCCCCCCCC [TL1-01D-DMA, trioctyl 2-((3-(dimethylamino)propanoyl)oxy)propane-1,2,3-tricarboxylate]
potency as determined by the average radiance detected in mouse lungs: particularly high potency

CCCCCCCCCCCCCCOC(=O)CC(CC(=O)OCCCCCCCCCCCCCC)(OC(=O)CCN(C)C)C(=O)OCCCCCCCCCCCCCC [TL1-04D-DMA]
potency as determined by the average radiance detected in mouse lungs: particularly high potency
